The values that follow come from patent US7151105B2, “Inhibitors of Hepatitis C virus RNA-dependent RNA polymerase, and compositions and treatments using the same” (Agouron Pharmaceuticals, Inc., priority 2004, dated 2006).

T1 sequence (P26663 2420-3010): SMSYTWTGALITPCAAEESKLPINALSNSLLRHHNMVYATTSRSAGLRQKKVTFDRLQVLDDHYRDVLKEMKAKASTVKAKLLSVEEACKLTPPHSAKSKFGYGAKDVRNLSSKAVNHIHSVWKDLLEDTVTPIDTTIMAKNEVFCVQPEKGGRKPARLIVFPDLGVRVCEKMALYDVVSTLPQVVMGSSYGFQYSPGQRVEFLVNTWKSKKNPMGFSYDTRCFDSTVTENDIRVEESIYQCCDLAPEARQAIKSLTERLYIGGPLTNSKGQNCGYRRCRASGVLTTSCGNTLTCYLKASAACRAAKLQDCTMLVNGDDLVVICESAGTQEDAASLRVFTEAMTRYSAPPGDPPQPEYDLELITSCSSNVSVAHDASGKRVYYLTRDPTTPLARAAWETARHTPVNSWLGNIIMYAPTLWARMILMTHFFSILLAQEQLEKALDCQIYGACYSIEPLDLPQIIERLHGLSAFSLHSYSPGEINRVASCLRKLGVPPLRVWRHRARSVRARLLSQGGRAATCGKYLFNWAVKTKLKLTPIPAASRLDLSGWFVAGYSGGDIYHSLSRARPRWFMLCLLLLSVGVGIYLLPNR

This experiment has as its target T1, Recombinant HCV polymerase (Hepatitis C virus genotype 1b, UniProt P26663).
T1 construct: Recombinant HCV polymerase was tested for its ability to perform primer/template-directed transcription
Description: biochemical. As to conditions: inhibition of polymerase-directed transcription; 30 min at 30° C; 30 nM enzyme; cpm data in triplicate. A digest of the protocol: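 Primer/template-directed RNA synthesis by 2.5 pmol HCV polymerase on poly(rC)300/biotin-dG12 with 1 μM GTP plus α-32P-GTP, in pH 7.2 Tris buffer with 10 mM MgCl2, for 30 min at 30 °C. Products were filter-captured and counted, with 1% DMSO final. IC50 was fitted from triplicate cpm; percent inhibition was reported where IC50 was impractical.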
With `COC(=O)c1ccc(CCC2(C3CCCC3)CC(O)=C(Cc3nc4nc(C)cc(C)n4n3)C(=O)O2)cc1Cl` (centres unmarked) [B(9), Methyl 2-chloro-4-(2-{2-cyclopentyl-5-[(5,7-dimethyl[1,2,4]triazolo[1,5-a]pyrimidin-2-yl)methyl]-4-hydroxy-6-oxo-3,6-dihydro-2H-pyran-2-yl}ethyl)benzoate], the 50% inhibitory concentration (IC50) – broadly, the midpoint of a concentration-inhibition curve – was determined as 6 nM.
Turning to `CCc1cc(CCC2(C3CCCC3)CC(O)=C(Cc3nc4ncc(C)cn4n3)C(=O)O2)ccc1-c1ncco1` (centres unmarked) [A(137), 6-Cyclopentyl-6-{2-[3-ethyl-4-(1,3-oxazol-2-yl)phenyl]ethyl}-4-hydroxy-2-[(6-methyl[1,2,4]triazolo[1,5-a]pyrimidin-2-yl)methyl]-5,6-dihydro-2H-pyran-2-one], the IC50 was determined as 300 nM.
As to `CCc1cc(CCC2(C3CCCC3)CC(O)=C(Cc3nc4nc(C)cc(C)n4n3)C(=O)O2)ccc1C(=O)NC` (centres unmarked) [A(121), 4-(2-{2-cyclopentyl-5-[(5,7-dimethyl[1,2,4]triazolo[1,5-a]pyrimidin-2-yl)methyl]-4-hydroxy-6-oxo-3,6-dihydro-2H-pyran-2-yl}ethyl)-2-ethyl-N-methylbenzamide], the IC50 worked out at 6 nM.
As to `CCCOc1cc(O)c(CCC2(C3CCCC3)CC(O)=C(Cc3nc4nc(C)cc(C)n4n3)C(=O)O2)cc1CC` (centres unmarked) [A(49), 6-Cyclopentyl-3-[(5,7-dimethyl[1,2,4]triazolo[1,5-a]pyrimidin-2-yl)methyl]-6-[2-(5-ethyl-2-hydroxy-4-propoxyphenyl)ethyl]-4-hydroxy-5,6-dihydro-2H-pyran-2-one], the IC50 is 7 nM.
For `CCc1cc(CCC2(C3CCCC3)CC(O)=C(Cc3nc4nc(C)cc(C)n4n3)C(=O)O2)ccc1C(=O)OC` (centres unmarked) [A(118), Methyl 4-(2-{2-cyclopentyl-5-[(5,7-dimethyl[1,2,4]triazolo[1,5a]pyrimidin-2-yl)methyl]-4-hydroxy-6oxo-3,6-dihydro-2H-pyran-2-yl}ethyl)-2-ethylbenzoate], the IC50 stood at 7 nM.
Turning to `Cc1cc(C)n2nc(CC3=C(O)CC(CCn4cc(Br)ccc4=O)(C4CCCC4)OC3=O)nc2n1` (centres unmarked) [B(30), 5-Bromo-1-(2-{2-cyclopentyl-5-[(5,7-dimethyl[1,2,4]triazolo[1,5-a]pyrimidin-2-yl)methyl]-4-hydroxy-6-oxo-3,6-dihydro-2H-pyran-2-yl}ethyl)pyridin-2(1H)-one], the IC50 amounted to 1200 nM.
Under `CCc1cc(CCC2(C3CCCC3)CC(O)=C(Cc3nc4ncccn4n3)C(=O)O2)ccc1NS(C)(=O)=O` (centres unmarked) [A(107), N-(4-{2-[2-cyclopentyl-4-hydroxy-6-oxo-5-([1,2,4]triazolo[1,5-a]pyrimidin-2-ylmethyl)-3,6dihydro-2H-pyran-2-yl]ethyl}-2-ethylphenyl)methanesulfonamide] stands 6 nM.
`CCc1cc(CCC2(C3CCCC3)CC(O)=C(Cc3nc4nc(C)cc(C)n4n3)C(=O)O2)ccc1CNS(C)(=O)=O` (centres unmarked) [A(128)]: the IC50 was determined as 6 nM.
Regarding `COc1cnc(C)cc1CCC1(C2CCCC2)CC(=O)CC(=O)O1` (centres unmarked) [A(7), 6-Cyclopentyl-6-[2-(5-methoxy-2-methylpyridin-4-yl)ethyl]dihydro-2H-pyran-2,4(3H)dione], the IC50 was determined as 11300 nM.
Under `Cc1cc(C)n2nc(CC3=C(O)CC(CCc4ccc(C(C)(C)NS(C)(=O)=O)c(F)c4)(C4CCCC4)OC3=O)nc2n1` (centres unmarked) [A(29), N-{1-[4-(2-{2-cyclopentyl-5-[(5,7-dimethyl[1,2,4]triazolo[1,5-a]pyrimidin-2-yl)methyl]-4-hydroxy-6-oxo-3,6-dihydro-2H-pyran-2-yl}ethyl)-2-fluorophenyl]-1-methylethyl}methanesulfonamide] stands 17 nM; under `Cc1cc(C)n2nc(CC3=C(O)CC(CCc4ccc(S(C)(=O)=O)c(Cl)c4)(C4CCCC4)OC3=O)nc2n1` (centres unmarked) [B(1), 6-{2-[3-Chloro-4-(methylsulfonyl)phenyl]ethyl}-6-cyclopentyl-3-[(5,7-dimethyl[1,2,4]triazolo[1,5-a]pyrimidin-2-yl)methyl]hydroxy-5,6-dihydro-2H-pyran-2-one], 60 nM; under `Cc1cc(C)n2nc(CC3=C(O)CC(CCc4ccc([C@@H](C)NS(=O)(=O)CC(F)(F)F)cc4)(C4CCCC4)OC3=O)nc2n1` (stereo partly drawn) [A(82), N-{(1R)-1-[4(2-{2-cyclopentyl-5-[(5,7-dimethyl[1,2,4]triazolo[1,5-a]pyrimidin-2-yl)methyl]4-hydroxy-oxo-3,6dihydro-2H-pyran-2-yl}ethyl)phenyl]ethyl}-2,2,2-trifluoroethanesulfonamide], 65 nM.
Consider `Cc1cc(C)n2nc(CC3=C(O)CC(CCc4ccc(S(=O)(=O)C(F)(F)F)cc4)(C4CCCC4)OC3=O)nc2n1` (centres unmarked) [A(65)], for which the IC50 came out at 250 nM.
For `CCc1cc(CCC2(C3CCCC3)CC(O)=C(Cc3nc4ncc(C)cn4n3)C(=O)O2)ccc1NS(C)(=O)=O` (centres unmarked) [A(106), N-[4-(2-{2-cyclopentyl-4-hydroxy-5-[(6-methyl[1,2,4]triazolo[1,5-a]pyrimidin-2-yl)methyl]-6-oxo-3,6-dihydro-2H-pyran-2-yl}ethyl)-2-ethylphenyl]methanesulfonamide], the IC50 worked out at 4 nM.
Take `Cn1cc(CC2=C(O)CC(CCc3ccc(C(C)(C)C#N)c(F)c3)(C3CCCC3)OC2=O)cn1` (centres unmarked) [A(86), 2-[4(2-{2-Cyclopentyl-hydroxy-5[(1-methyl-1H-pyrazol-4-yl)methyl]-6-oxo-3,6-dihydro-2H-pyran-2-yl}ethyl)-2-fluorophenyl]-2-methylpropanenitrile]: the IC50 stood at 86 nM.
The figure for `CCc1cc(CCC2(C3CCCC3)CC(O)=C(Cc3nc4nc(C)cc(C)n4n3)C(=O)O2)c(OCC2CC2)cc1O` (centres unmarked) [A(32), 6-Cyclopentyl-6-{2-[2-(cyclopropylmethoxy)-5-ethyl-4-hydroxyphenyl]ethyl}-3-[(5,7-dimethyl[1,2,4]triazolo[1,5-a]pyrimidin-2-yl)methyl]-4-hydroxy-5,6-dihydro-2H-pyran-2-one] is 5 nM; for `COC(=O)c1ccc(CCC2(C3CCCC3)CC(O)=C(Cc3nc4nc(C)cc(C)n4n3)C(=O)O2)cc1F` (centres unmarked) [B(8), Methyl 4-(2-{2-cyclopentyl-5-[(5,7-dimethyl[1,2,4]triazolo[1,5-a]pyrimidin-2-yl)methyl]-4-hydroxy-6oxo-3,6-dihydro-2H-pyran-2-yl}ethyl)-2-fluorobenzoate] it is 29 nM.
For `CCOc1cnc(CC)cc1CCC1(C2CCCC2)CC(O)=C(Cc2nc3nc(C)cc(C)n3n2)C(=O)O1` (centres unmarked) [A(27), 6-Cyclopentyl-3-[(5,7-dimethyl[1,2,4]triazolo[1,5-a]pyrimidin-2-yl)methyl]-6-[2-(5-ethoxy-2-ethylpyridin-4-yl)ethyl]-4-hydroxy-5,6-dihydro-2H-pyran-2-one], the IC50 was found to be 3 nM.
On to `Cc1nn(C)c(Cl)c1CC1=C(O)CC(CCc2ccc(C(C)(C)C#N)c(F)c2)(C2CCCC2)OC1=O` (centres unmarked) [A(96), 2-[4-(2-{5-[(5-Chloro-1,3-dimethyl-1H-pyrazol-4-yl)methyl]-2-cyclopentyl-4-hydroxy-6-oxo-3,6-dihydro-2H-pyran-2-yl}ethyl)-2-fluorophenyl]-2-methylpropanenitrile], for which the IC50 came out at 6 nM.
Take `CCc1cc(CCC2(C3CCCC3)CC(O)=C(Cc3nc4nc(C)cc(C)n4n3)C(=O)O2)ccn1` (single isomer, unassigned) [A(44), 6-Cyclopentyl-3-[(5,7-dimethyl[1,2,4]triazolo[1,5-a]pyrimidin-2-yl)methyl]-6-[2-(2-ethylpyridin-4-yl)ethyl]-4-hydroxy-5,6-dihydro-2H-pyran-2-one]: the IC50 worked out at 7 nM.
